Like-named read-outs stand apart in the source and are kept apart here.
Key:
PfPanK1 [1] = target: T1, PfPanK1 (Plasmodium falciparum, UniProt Q8ILP4); test: Screening of natural compounds for PfPanK inhibitors and IC50 determination (recombinant enzyme, ADP Hunter Plus); assay type: biochemical
T1 sequence (Q8ILP4 1-519): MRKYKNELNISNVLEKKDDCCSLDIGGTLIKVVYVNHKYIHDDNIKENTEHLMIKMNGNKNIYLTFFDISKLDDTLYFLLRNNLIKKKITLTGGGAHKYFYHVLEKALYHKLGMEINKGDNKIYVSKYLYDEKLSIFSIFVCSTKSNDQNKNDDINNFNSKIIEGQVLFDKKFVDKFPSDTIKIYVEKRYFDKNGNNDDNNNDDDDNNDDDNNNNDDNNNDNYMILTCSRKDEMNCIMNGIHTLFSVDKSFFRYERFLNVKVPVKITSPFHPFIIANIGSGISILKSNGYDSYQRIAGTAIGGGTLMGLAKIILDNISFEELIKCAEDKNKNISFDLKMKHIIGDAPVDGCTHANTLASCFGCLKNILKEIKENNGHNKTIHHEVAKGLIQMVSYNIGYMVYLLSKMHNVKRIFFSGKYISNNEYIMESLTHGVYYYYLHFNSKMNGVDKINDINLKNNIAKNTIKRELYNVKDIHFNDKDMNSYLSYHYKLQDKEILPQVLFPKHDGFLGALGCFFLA
Procedure: We screened 247 compounds from the Kitasato Natural Products Library ([Mori et al., 2015]; [Nurkanto et al., 2018]) against PfPanK recombinant enzyme. Compounds were dissolved in 50% DMSO at a final concentration of 1 mg/ml.

[2] = system: P. falciparum K1 and FCR3 strain; conditions: cited from earlier work
[3] = system: Plasmodium falciparum sensitive strain 3D7; test: P. falciparum asexual blood stage growth, diaphorase-coupled LDH assay; assay type: cell-based; conditions: 3D7, 72 h incubation, mean ± SEM, read-out: IC50 P. falciparum erythrocytic stages
Procedure: Before using, parasite culture was synchronized with 5% (w/v) d-sorbitol, as previously described ([Lambros and Vanderberg, 1979]). Ring stage 0.3% parasitemia (25 µl/well) were placed in a 384-well plate. Serial dilutions (50, 25, 12.5, 6.3, 3.1, 1.6, 0.8, and 0.4 μM) of each compound were used for calculating IC50. As the negative growth control, 50 µM of Mefloquine and 20 µM of Atovaquone were used. After 72 h of incubation, parasite growth was determined by diaphorase-coupled lactate dehydrogenase (LDH) assay, as previously described ([Hartuti et al., 2018]). Each well’s absorbance was measured at 650 nm using SpectraMax Paradigm®Multi-Mode microplate reader (Molecular Devices, San Jose, CA, USA). The IC50 values were analyzed and calculated with GraphPad PRISM 8.0 (San Diego, California USA).

various human cell lines = system: various human cell lines; set-up: method as in Koizumi et al., 2009; conditions: ref Koizumi et al., 2009; cited from earlier work
PfPanK1 [4] = target: T1, PfPanK1; assay type: biochemical; conditions: for Effect on PfPanK1 activity: 100 μM ATP, pH 8.4, 37°C
[5] = primary screening; compound at 50 µM final concentration (methods: 50 µg/ml); 37°C, 2 h
[6] = recombinant PfPanK1; mean ± SEM

## CC1(C)S[C@@H]2[C@H](NC(=O)[C@H](N)c3ccc(O)cc3)C(=O)N2[C@H]1C(=O)O [Amoxicillin]
PfPanK1 [1]; primary screening; 37°C, 2 h
  inhibition: 45.7%

## CON1C(=O)[C@H]2NC(=O)[C@]13Oc1cc(O)c(Cl)cc1[C@@H]3SS2 [Aspirochlorine]
PfPanK1 [1]; 2 h, primary screening; 37°C
  inhibition: 49.7%

## C/C=C\C=C\[C@@H]1O[C@](O)([C@H](CC)C(=O)NC/C=C/C=C(\C)[C@@H](OC)[C@@H](C)[C@@H]2O[C@H](/C=C/C=C/C=C(\C)C(=O)c3c(O)ccn(C)c3=O)[C@H](O)[C@@H]2O)[C@H](O)[C@H](O)C1(C)C [Aurodox]
PfPanK1 [1]; [5]
  PfPanK1 Inhibition (%): 52.2%

## Cc1nnc(SCC2=C(C(=O)O)N3C(=O)[C@@H](NC(=O)Cn4cnnn4)[C@H]3SC2)s1 [Cefazolin]
PfPanK1 [1]; 2 h, primary screening; 37°C
  inhibition: 44.2%

## CC(=O)Oc1cccc2c(=O)c3c4c(c(=[N+]=[N-])c=3c(=O)c12)C(OC(C)=O)C(C)(OC(C)=O)C(OC(C)=O)C4OC(C)=O (stereo not shown) [Diacetylkinamycin C]
[2]; FCR3 strain, ref Shimizu el al., 2019, unpublished, read-out: IC50 P. falciparum erythrocytic stages
  IC50: 1100 nM
[2]; K1 strain, ref Shimizu el al., 2019, unpublished, read-out: IC50 P. falciparum erythrocytic stages
  IC50: 2200 nM
[2]; range over drug-resistant K1 and drug-sensitive FCR3 strain, ref Shimizu et al., 2019, unpublished, read-out: IC50 against P. falciparum
  IC50: 1100 to 2200 nM
PfPanK1 [1]; primary screening; 37°C, 2 h
  inhibition: 96.1%
PfPanK1 [1]; [6]
  IC50: 36200 ± 4700 nM

## CN[C@@H]1[C@H](O[C@H]2[C@H](O[C@H]3[C@H](O)[C@@H](O)[C@H](NC(=N)N)[C@@H](O)[C@@H]3NC(=N)N)O[C@@H](C)[C@]2(O)CO)O[C@@H](CO)[C@H](O)[C@H]1O [Dihydrostreptomycin]
PfPanK1 [1]; 2 h, primary screening; 37°C
  inhibition: 44.7%

## CS[C@H]1SC[C@H]2C(=O)N(C)[C@@H](C(C)C)C(=O)OC[C@@H](NC(=O)c3cnc4ccccc4n3)C(=O)N[C@@H](C)C(=O)N(C)[C@@H]1C(=O)N(C)[C@@H](C(C)C)C(=O)OC[C@@H](NC(=O)c1cnc3ccccc3n1)C(=O)N[C@@H](C)C(=O)N2C [Echinomycin]
PfPanK1 [1]; 2 h, primary screening; 37°C
  inhibition: 47.1%

## OC[C@H]1O[C@@H](Oc2ccc(/C=C/c3cc(O)c4c(c3)O[C@H](c3ccc(O)cc3)[C@H]4c3cc(O)cc(O)c3)cc2)[C@H](O)[C@@H](O)[C@@H]1O [Gnemonoside D]
[3]
  IC50: 1900 ± 600 nM
PfPanK1 [1]; primary screening; 37°C, 2 h
  inhibition: 85%
PfPanK1 [1]; [6]
  IC50: 57500 ± 3600 nM

## CO[C@@H]1[C@@H](O[C@@H]2O[C@H](C)[C@@H](O[C@H]3C[C@@](C)(O)[C@@H](OC(=O)CC(C)C)[C@H](C)O3)[C@H](N(C)C)[C@H]2O)[C@@H](CC=O)C[C@@H](C)[C@@H](O)/C=C/C=C/C[C@@H](C)OC(=O)C[C@H]1OC(C)=O [Leucomycin A3]
PfPanK1 [1]; 2 h, primary screening; 37°C
  inhibition: 40.1%

## CCC[C@@H]1C[C@@H](C(=O)N[C@@H]([C@H]2O[C@H](SC)[C@H](O)[C@@H](O)[C@H]2O)[C@@H](C)O)N(C)C1 [Lincomycin]
PfPanK1 [1]; 2 h, primary screening; 37°C
  inhibition: 41.3%

## NC[C@@H]1O[C@H](O[C@H]2[C@@H](O)[C@H](O[C@@H]3[C@@H](O)[C@H](N)C[C@H](N)[C@H]3O[C@H]3O[C@H](CO)[C@@H](O)C[C@H]3N)O[C@@H]2CO)[C@H](N)[C@@H](O)[C@@H]1O[C@H]1O[C@H](CO)[C@@H](O)[C@H](O)[C@@H]1O [Lividomycin A]
PfPanK1 [1]; 2 h, primary screening; 37°C
  inhibition: 44%

## NC[C@H]1O[C@H](O[C@H]2[C@H](O[C@@H]3O[C@H](CO)[C@@H](O)[C@H]3O)[C@@H](O)[C@H](N)C[C@@H]2N)[C@H](N)[C@@H](O)[C@@H]1O [Ribostamycin]
PfPanK1 [1]; 2 h, primary screening; 37°C
  inhibition: 46.6%

## COc1c2c(c(O)c3c(=O)c4c(oc13)[C@@H](O)CC[C@@H]4O)-c1c3c(c4cc(C)n(C)c(=O)c4c1O)OCO[C@H]3C2 [Simaomicin α]
Various human cell lines
  EC50: 0.3 to 19 nM
[2]; FCR3 strain, ref Ui et al., 2007, read-out: IC50 P. falciparum erythrocytic stages
  IC50: 0.018 nM
[2]; K1 strain, ref Ui et al., 2007, read-out: IC50 P. falciparum erythrocytic stages
  IC50: 0.083 nM
PfPanK1 [1]; 2 h, primary screening; 37°C
  inhibition: 76.9%
PfPanK1 [1]; [6]
  IC50: 57600 ± 4800 nM

## CN[C@@H]1[C@H](O)[C@H](NC)[C@H]2O[C@@]3(O)C(=O)C[C@@H](C)O[C@H]3O[C@@H]2[C@H]1O [Spectinomycin (Actinospectacin), Spectinomycin]
PfPanK1 [1]; [5]
  PfPanK1 Inhibition (%): 55.0%

## CN[C@@H]1[C@H](O)[C@H](NC)[C@H]2O[C@@]3(O)C(=O)C[C@@H](C)O[C@H]3O[C@@H]2[C@H]1O [Spectinomycin (Trobicin), Spectinomycin]
PfPanK1 [1]; 2 h, primary screening; 37°C
  inhibition: 47.8%

## C=C/C(C)=C/[C@@]1(C)SC(=O)C(C)=C1O [Thiolactomycin]
PfPanK1 [1]; primary screening; 37°C, 2 h
  inhibition: 42.4%

## CC(/C=C/C(O)=C1/C(=O)CNC1=O)=C\[C@@H](C)[C@H]1O[C@@]2(C)O[C@H](C(=O)[C@H]3O[C@]32C)[C@@H]1C [Tirandamycin A]
PfPanK1 [1]; [5]
  PfPanK1 Inhibition (%): 49.7%

## CC(/C=C/C(=O)NO)=C\[C@@H](C)C(=O)c1ccc(N(C)C)cc1 [Trichostatin]
PfPanK1 [1]; primary screening; 37°C, 2 h
  inhibition: 47.2%

## CC(C)(CO)C(O)C(=O)NCCCO (stereo not shown) [panthenol]
PfPanK1 [4]; high concentrations of panthenol (e.g., 0.5 mM), regardless of the substrates
  Increase of enzyme activity: up to 40%
PfPanK1 [4]; pantetheine as substrate
  Effect on PfPanK1 activity: did not inhibit PfPanK1 activity
PfPanK1 [4]; pantothenate as substrate
  Effect on PfPanK1 activity: did not inhibit PfPanK1 activity

## Gardimycin
PfPanK1 [1]; [5]
  PfPanK1 Inhibition (%): 42.5%

## Gramicidin NF
PfPanK1 [1]; [5]
  PfPanK1 Inhibition (%): 45.5%

## Thaimycin
PfPanK1 [1]; [5]
  PfPanK1 Inhibition (%): 53.9%

From article PMC7985445, “Characterization of Plasmodium falciparum Pantothenate Kinase and Identification of Its Inhibitors From Natural Products” (Frontiers in Cellular and Infection Microbiology, 2021)
